In PubChem BioAssay AID330 (DTP/NCI, 2004):
Values joined by “and” are separate entries in the source; they are usually repeats but may differ in a detail not shown here. Equal values may be shown once. Toxic doses and inconclusive results are not listed. The calls were made as follows: active = survival T/C of 150% or more; inactive = T/C below 125% in these data.

System: P388 leukemia ip, CD2F1 mice, survival T/C
Test: NCI In Vivo Anticancer Drug Screen. Data for tumor model P388 Leukemia (intraperitoneal) in CD2F1 (CDF1) mice
Details: endpoint: median survival time, higher = longer survival
Method in brief: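 Mice carrying the transplanted tumor received test compound or vehicle. Survival was recorded in each group, and the value is the treated-group measurement divided by that of the vehicle-treated control group.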

[1] = dose: 50.0 mg/kg/injection, schedule: Q01DX005 (ip), vehicle: saline with Tween-80
[2] = dose: 100.0 mg/kg/injection, schedule: Q01DX005 (ip), vehicle: saline with Tween-80
[3] = dose: 200.0 mg/kg/injection, schedule: Q01DX005 (ip), vehicle: saline with Tween-80
[4] = dose: 12.5 mg/kg/injection, schedule: Q01DX009 (ip), vehicle: distilled water + Tween-80
[5] = dose: 25.0 mg/kg/injection, schedule: Q01DX009 (ip), vehicle: distilled water + Tween-80
[6] = dose: 50.0 mg/kg/injection, schedule: Q01DX009 (ip), vehicle: distilled water + Tween-80
[7] = dose: 100.0 mg/kg/injection, schedule: Q01DX009 (ip), vehicle: distilled water + Tween-80
[8] = dose: 200.0 mg/kg/injection, schedule: Q01DX009 (ip), vehicle: distilled water + Tween-80
[9] = dose: 100.0 mg/kg/injection, schedule: Q01DX009 (ip), vehicle: saline with Tween-80
[10] = dose: 15.0 mg/kg/injection, schedule: Q01DX005 (ip), vehicle: saline with Tween-80
[11] = dose: 60.0 mg/kg/injection, schedule: Q01DX005 (ip), vehicle: saline with Tween-80
[12] = dose: 30.0 mg/kg/injection, schedule: Q01DX005 (ip), vehicle: saline with Tween-80

Measured: T/C

O=[N+]([O-])c1ccc(C(Nc2nncs2)Nc2nncs2)cc1
inactive: dose: 50.0 mg/kg/injection, schedule: Q01DX005 (ip), vehicle: Klucel (hydroxypropylcellulose) (HPC) 100 % of control | dose: 100.0 mg/kg/injection, schedule: Q01DX005 (ip), vehicle: Klucel (hydroxypropylcellulose) (HPC) 103 % of control | dose: 200.0 mg/kg/injection, schedule: Q01DX005 (ip), vehicle: Klucel (hydroxypropylcellulose) (HPC) 119 % of control

CC(C)(CCC(C)(C)NC(=O)C12CC3CC(CC(C3)C1)C2)NC(=O)C12CC3CC(CC(C3)C1)C2
inactive: [1] 90 % of control | [2] 97 % of control | [3] 97 % of control

COC(=O)Nc1cnc(C(=O)O)c(C)c1-c1ccc(OC)c(OC)c1OCc1ccccc1
inactive: dose: 12.5 mg/kg/injection, schedule: Q01DX009 (ip), vehicle: other 97 % of control | dose: 25.0 mg/kg/injection, schedule: Q01DX009 (ip), vehicle: other 100 % of control | dose: 50.0 mg/kg/injection, schedule: Q01DX009 (ip), vehicle: other 102 % of control | dose: 100.0 mg/kg/injection, schedule: Q01DX009 (ip), vehicle: other 101 % of control | dose: 200.0 mg/kg/injection, schedule: Q01DX009 (ip), vehicle: other 103 % of control

N#CC(C(=O)C(=O)Nc1cccc(C(F)(F)F)c1)c1ccccc1 (centres undefined)
inactive: [1] 93 % of control | [2] 100 % of control

C=C1CC2(CC3C4CC3CC2C4)OC1=O (centres undefined)
inactive: dose: 100.0 mg/kg/injection, schedule: Q01DX001 (ip), vehicle: saline 98 % of control | dose: 200.0 mg/kg/injection, schedule: Q01DX001 (ip), vehicle: saline 99 % of control | dose: 400.0 mg/kg/injection, schedule: Q01DX001 (ip), vehicle: saline 100 % of control

CC(=O)OCC1C(OC(C)=O)C(OC(C)=O)C(COC(C)=O)N1C(C)=O (centres undefined)
inactive: dose: 100.0 mg/kg/injection, schedule: Q04DX003 (ip), vehicle: Klucel (hydroxypropylcellulose) (HPC) 90 % of control | dose: 200.0 mg/kg/injection, schedule: Q04DX003 (ip), vehicle: Klucel (hydroxypropylcellulose) (HPC) 90 % of control | dose: 400.0 mg/kg/injection, schedule: Q04DX003 (ip), vehicle: Klucel (hydroxypropylcellulose) (HPC) 87 % of control

CCOC(=O)Cn1ccnc1[N+](=O)[O-]
inactive: [4] 102 % of control | [5] 97 % of control | [6] 100 % of control | [7] 102 % of control | [8] 109 % of control

COC(=O)C1CC(c2ccccc2)N(C(C)(C)C)O1 (centres undefined)
inactive: dose: 100.0 mg/kg/injection, schedule: Q04DX002 (ip), vehicle: saline with Tween-80 97 % of control | dose: 200.0 mg/kg/injection, schedule: Q04DX002 (ip), vehicle: saline with Tween-80 100 % of control | dose: 400.0 mg/kg/injection, schedule: Q04DX002 (ip), vehicle: saline with Tween-80 100 % of control

CC1(C)NCCc2c1[nH]c1ccccc21
inactive: dose: 50.0 mg/kg/injection, schedule: Q04DX002 (ip), vehicle: suspension in saline 100 % of control | dose: 100.0 mg/kg/injection, schedule: Q04DX002 (ip), vehicle: suspension in saline 100 % of control | dose: 200.0 mg/kg/injection, schedule: Q04DX002 (ip), vehicle: suspension in saline 100 % of control

COc1ccccc1NC(=S)Nc1ccccc1OC
inactive: [9] 100 % of control | dose: 100.0 mg/kg/injection, schedule: Q04DX003 (ip), vehicle: saline sonified 100 % of control | dose: 200.0 mg/kg/injection, schedule: Q01DX009 (ip), vehicle: saline with Tween-80 87 % of control | dose: 200.0 mg/kg/injection, schedule: Q04DX003 (ip), vehicle: saline sonified 100 % of control | dose: 400.0 mg/kg/injection, schedule: Q01DX009 (ip), vehicle: saline with Tween-80 91 % of control | dose: 400.0 mg/kg/injection, schedule: Q04DX003 (ip), vehicle: saline sonified 100 % of control

COc1ccc2sc3cc(Cl)ccc3c(=O)c2c1
inactive: dose: 1.87 mg/kg/injection, schedule: Q01DX005 (ip), vehicle: saline with Tween-80 89 % of control | dose: 3.75 mg/kg/injection, schedule: Q01DX005 (ip), vehicle: saline with Tween-80 90 % of control | [10] 89 % of control and 90 % of control | [11] 88 % of control

C[Si](CNCCN)(c1ccccc1)c1ccccc1
inactive: [10] 103 % of control | [12] 102 % of control | [11] 96 % of control and 97 % of control

CC1CN=C(c2ccc(NC(=O)c3ccc(NC(=O)c4ccc(C5=NCC(C)N5)cc4)cc3)cc2)N1 (centres undefined)
inactive: dose: 6.25 mg/kg/injection, schedule: Q01DX005 (ip), vehicle: saline with Tween-80 119 % of control and 123 % of control | dose: 12.5 mg/kg/injection, schedule: Q01DX005 (ip), vehicle: saline with Tween-80 110 % of control

CCN(CC)Cc1cc(Nc2ccnc3cc(N(C)C)ccc23)ccc1O
inactive: dose: 6.25 mg/kg/injection, schedule: Q01DX009 (ip), vehicle: saline 103 % of control | dose: 12.5 mg/kg/injection, schedule: Q01DX009 (ip), vehicle: saline 115 % of control | dose: 25.0 mg/kg/injection, schedule: Q01DX009 (ip), vehicle: saline 115 % of control

O=c1[nH]n(CCc2ccccn2)c(=O)c(Cl)c1Cl
inactive: [1] 96 % of control | [2] 100 % of control | [3] 92 % of control

O=C(Nc1ccc(Cl)cc1)Nc1nnc(COc2ccccc2)o1
inactive: [10] 90 % of control | [12] 88 % of control | [11] 89 % of control and 90 % of control | dose: 120.0 mg/kg/injection, schedule: Q01DX005 (ip), vehicle: saline with Tween-80 90 % of control | dose: 240.0 mg/kg/injection, schedule: Q01DX005 (ip), vehicle: saline with Tween-80 87 % of control

CC(C)(C)[Si](C)(C)ONC(N)=O
inactive: [4] 99 % of control | [5] 94 % of control | [6] 93 % of control | [7] 88 % of control | [8] 90 % of control

O=C1c2ccccc2CCC1Br (centres undefined)
inactive: dose: 1.56 mg/kg/injection, schedule: Q01DX009 (ip), vehicle: DMSO 113 % of control | dose: 6.25 mg/kg/injection, schedule: Q01DX009 (ip), vehicle: DMSO 99 % of control and 103 % of control | dose: 12.5 mg/kg/injection, schedule: Q01DX009 (ip), vehicle: DMSO 102 % of control

ClC1(Cl)C(=C=C2C3CC4CC(C3)CC2C4)C12C1CC3CC(C1)CC2C3 (centres undefined)
inactive: dose: 25.0 mg/kg/injection, schedule: Q01DX009 (ip), vehicle: Klucel (hydroxypropylcellulose) (HPC) 100 % of control | dose: 50.0 mg/kg/injection, schedule: Q01DX008 (ip), vehicle: Klucel (hydroxypropylcellulose) (HPC) 101 % of control | dose: 100.0 mg/kg/injection, schedule: Q01DX008 (ip), vehicle: Klucel (hydroxypropylcellulose) (HPC) 101 % of control | dose: 100.0 mg/kg/injection, schedule: Q01DX009 (ip), vehicle: Klucel (hydroxypropylcellulose) (HPC) 94 % of control | dose: 200.0 mg/kg/injection, schedule: Q01DX008 (ip), vehicle: Klucel (hydroxypropylcellulose) (HPC) 87 % of control

CCC(=O)c1ccc(O)c(O)c1
inactive: dose: 50.0 mg/kg/injection, schedule: Q01DX009 (ip), vehicle: saline with Tween-80 104 % of control | [9] 105 % of control

CO/N=C1/OC(=O)OCC1(c1ccccc1)c1ccccc1
inactive: [1] 100 % of control | [2] 104 % of control | [3] 100 % of control
